# According to the kinase profiling compilation of Christmann-Franck et al. (2016):
# Columns and labels:
# Test in all cases: KINOMEscan competition binding
# Settings in all cases: compound 10.0 µM
# [1] = target: MINK1 (human) (UniProt Q8N4C8)
# [2] = target: CAMKK2 (human) (UniProt Q96RR4)
# [3] = target: CSNK1G1 (human) (UniProt Q9HCP0)
# [4] = target: MAP4K5 (human) (UniProt Q9Y4K4)
# [5] = target: RPS6KA3 KD1 (human) (UniProt P51812)
# [6] = target: CSNK1E (human) (UniProt P49674)
# [7] = target: FLT4 (human) (UniProt P35916)
# [8] = target: RPS6KA1 KD2 (human) (UniProt Q15418)
# [9] = target: PLK3 (human) (UniProt Q9H4B4)
# [10] = target: MYLK (human) (UniProt Q15746)
# [11] = target: RIOK3 (human) (UniProt O14730)
# [12] = target: MAPK7 (human) (UniProt Q13164)
# [13] = target: MAPKAPK5 (human) (UniProt Q8IW41)
# [14] = target: RAF1 (human) (UniProt P04049)
# [15] = target: EPHA8 (human) (UniProt P29322)
# [16] = target: HCK (human) (UniProt P08631)
# [17] = target: JAK1 JH1 catalytic (human) (UniProt P23458)
# [18] = target: MAP4K2 (human) (UniProt Q12851)
# [19] = target: CDC42BPG (human) (UniProt Q6DT37)
# [20] = target: MAP3K4 (human) (UniProt Q9Y6R4)
# [21] = target: ULK2 (human) (UniProt Q8IYT8)
# [22] = target: CSF1R (human) (UniProt P07333)
# [23] = target: TIE1 (human) (UniProt P35590)
# [24] = target: BRSK2 (human) (UniProt Q8IWQ3)
# [25] = target: RPS6KA4 KD1 (human) (UniProt O75676)
# [26] = target: CLK4 (human) (UniProt Q9HAZ1)
# [27] = target: STK11 (human) (UniProt Q15831)
# [28] = target: MAP3K7 (human) (UniProt O43318)
# [29] = target: PLK1 (human) (UniProt P53350)
# [30] = target: MUSK (human) (UniProt O15146)
# [31] = target: JAK3 JH1 catalytic (human) (UniProt P52333)
# [32] = target: FLT3 (human) (UniProt P36888)
# [33] = target: HIPK1 (human) (UniProt Q86Z02)
# [34] = target: MAP4K4 (human) (UniProt O95819)
# [35] = target: CDC42BPB (human) (UniProt Q9Y5S2)
# [36] = target: CLK2 (human) (UniProt P49760)
# [37] = target: EGFR (human) (UniProt P00533)
# [38] = target: CAMK2B (human) (UniProt Q13554)
# Sequence of MAP4K2 (human) (Q12851 whole entry, looked up): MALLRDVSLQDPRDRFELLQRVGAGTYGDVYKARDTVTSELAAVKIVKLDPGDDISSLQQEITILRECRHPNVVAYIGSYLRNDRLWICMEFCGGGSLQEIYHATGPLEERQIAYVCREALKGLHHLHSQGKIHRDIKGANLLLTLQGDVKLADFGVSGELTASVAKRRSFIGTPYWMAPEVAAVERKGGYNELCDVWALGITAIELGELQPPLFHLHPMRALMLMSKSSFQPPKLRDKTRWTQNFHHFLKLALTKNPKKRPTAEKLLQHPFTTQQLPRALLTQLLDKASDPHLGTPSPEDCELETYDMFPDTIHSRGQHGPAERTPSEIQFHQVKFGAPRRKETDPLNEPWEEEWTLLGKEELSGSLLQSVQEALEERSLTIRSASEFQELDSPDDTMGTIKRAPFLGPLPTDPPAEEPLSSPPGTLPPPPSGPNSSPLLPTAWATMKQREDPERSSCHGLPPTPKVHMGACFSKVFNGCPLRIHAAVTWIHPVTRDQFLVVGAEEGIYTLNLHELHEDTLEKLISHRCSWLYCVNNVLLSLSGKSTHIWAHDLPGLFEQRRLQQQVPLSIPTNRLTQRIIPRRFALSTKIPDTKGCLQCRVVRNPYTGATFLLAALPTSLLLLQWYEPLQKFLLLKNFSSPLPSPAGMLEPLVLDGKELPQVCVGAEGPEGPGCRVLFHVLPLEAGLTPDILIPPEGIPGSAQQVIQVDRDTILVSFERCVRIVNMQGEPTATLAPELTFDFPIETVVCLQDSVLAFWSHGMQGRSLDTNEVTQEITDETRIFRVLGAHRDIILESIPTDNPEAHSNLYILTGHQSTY
# Sequence of CSNK1G1 (human) (Q9HCP0 whole entry, looked up): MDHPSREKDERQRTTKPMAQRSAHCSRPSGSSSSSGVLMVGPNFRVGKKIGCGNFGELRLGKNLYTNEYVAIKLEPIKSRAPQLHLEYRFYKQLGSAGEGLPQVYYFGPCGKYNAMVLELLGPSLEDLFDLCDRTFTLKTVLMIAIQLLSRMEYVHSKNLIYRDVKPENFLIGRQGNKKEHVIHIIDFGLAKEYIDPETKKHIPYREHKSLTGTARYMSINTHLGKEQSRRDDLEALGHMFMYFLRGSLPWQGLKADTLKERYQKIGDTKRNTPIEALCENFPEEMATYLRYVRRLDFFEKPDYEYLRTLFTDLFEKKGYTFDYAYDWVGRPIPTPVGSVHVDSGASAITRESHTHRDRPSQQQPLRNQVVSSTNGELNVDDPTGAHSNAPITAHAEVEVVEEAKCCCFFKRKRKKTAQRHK
# Sequence of MAP3K7 (human) (O43318 whole entry, looked up): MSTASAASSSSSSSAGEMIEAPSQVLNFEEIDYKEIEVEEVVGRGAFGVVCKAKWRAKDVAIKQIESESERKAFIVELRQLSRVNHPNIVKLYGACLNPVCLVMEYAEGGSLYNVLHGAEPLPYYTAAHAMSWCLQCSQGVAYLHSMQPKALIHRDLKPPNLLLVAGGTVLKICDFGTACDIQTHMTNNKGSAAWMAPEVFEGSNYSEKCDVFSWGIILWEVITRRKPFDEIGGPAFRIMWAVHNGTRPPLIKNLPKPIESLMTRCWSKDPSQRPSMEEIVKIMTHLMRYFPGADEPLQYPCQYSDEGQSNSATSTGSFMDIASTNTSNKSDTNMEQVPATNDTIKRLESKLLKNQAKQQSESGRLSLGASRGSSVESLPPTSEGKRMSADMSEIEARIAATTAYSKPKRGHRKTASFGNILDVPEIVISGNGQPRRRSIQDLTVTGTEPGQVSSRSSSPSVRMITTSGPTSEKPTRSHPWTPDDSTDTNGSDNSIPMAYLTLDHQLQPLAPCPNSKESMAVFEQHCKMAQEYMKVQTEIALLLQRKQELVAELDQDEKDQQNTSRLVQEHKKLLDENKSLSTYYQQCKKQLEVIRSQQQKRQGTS
# Sequence of CLK4 (human) (Q9HAZ1 whole entry, looked up): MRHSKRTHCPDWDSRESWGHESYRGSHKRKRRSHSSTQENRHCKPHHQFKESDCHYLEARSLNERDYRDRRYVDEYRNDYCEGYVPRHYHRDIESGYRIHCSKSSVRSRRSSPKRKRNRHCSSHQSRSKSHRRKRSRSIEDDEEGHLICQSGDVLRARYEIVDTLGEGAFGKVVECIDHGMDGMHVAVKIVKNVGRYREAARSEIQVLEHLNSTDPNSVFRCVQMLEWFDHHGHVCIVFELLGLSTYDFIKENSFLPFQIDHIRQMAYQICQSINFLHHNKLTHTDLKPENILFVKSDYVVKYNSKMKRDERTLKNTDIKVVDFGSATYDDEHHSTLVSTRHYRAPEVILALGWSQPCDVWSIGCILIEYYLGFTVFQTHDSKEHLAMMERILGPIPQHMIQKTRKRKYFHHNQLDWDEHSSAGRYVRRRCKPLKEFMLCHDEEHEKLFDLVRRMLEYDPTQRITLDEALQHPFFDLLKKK
# Sequence of MAPK7 (human) (Q13164 whole entry, looked up): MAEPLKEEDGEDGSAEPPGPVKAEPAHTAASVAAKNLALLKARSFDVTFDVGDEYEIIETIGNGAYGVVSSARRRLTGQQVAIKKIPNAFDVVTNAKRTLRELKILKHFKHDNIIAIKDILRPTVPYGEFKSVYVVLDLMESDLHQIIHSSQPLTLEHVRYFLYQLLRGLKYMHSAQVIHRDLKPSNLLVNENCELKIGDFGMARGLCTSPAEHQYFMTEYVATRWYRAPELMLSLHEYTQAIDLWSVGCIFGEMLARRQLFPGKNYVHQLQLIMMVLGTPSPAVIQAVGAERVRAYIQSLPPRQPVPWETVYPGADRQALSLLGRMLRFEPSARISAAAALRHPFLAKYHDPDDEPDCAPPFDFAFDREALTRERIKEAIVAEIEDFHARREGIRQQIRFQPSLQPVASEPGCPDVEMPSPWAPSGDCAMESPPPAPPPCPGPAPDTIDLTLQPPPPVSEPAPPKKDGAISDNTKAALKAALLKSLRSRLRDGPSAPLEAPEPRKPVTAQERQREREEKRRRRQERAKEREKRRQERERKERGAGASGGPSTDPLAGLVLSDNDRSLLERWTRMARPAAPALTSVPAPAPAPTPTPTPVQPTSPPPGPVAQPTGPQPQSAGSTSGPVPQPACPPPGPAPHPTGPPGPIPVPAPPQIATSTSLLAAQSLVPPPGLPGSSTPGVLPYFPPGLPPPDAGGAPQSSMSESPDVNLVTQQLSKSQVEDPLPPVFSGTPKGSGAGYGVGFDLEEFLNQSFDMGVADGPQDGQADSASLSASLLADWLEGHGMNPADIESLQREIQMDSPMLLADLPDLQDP
# Sequence of MYLK (human) (Q15746 whole entry, looked up): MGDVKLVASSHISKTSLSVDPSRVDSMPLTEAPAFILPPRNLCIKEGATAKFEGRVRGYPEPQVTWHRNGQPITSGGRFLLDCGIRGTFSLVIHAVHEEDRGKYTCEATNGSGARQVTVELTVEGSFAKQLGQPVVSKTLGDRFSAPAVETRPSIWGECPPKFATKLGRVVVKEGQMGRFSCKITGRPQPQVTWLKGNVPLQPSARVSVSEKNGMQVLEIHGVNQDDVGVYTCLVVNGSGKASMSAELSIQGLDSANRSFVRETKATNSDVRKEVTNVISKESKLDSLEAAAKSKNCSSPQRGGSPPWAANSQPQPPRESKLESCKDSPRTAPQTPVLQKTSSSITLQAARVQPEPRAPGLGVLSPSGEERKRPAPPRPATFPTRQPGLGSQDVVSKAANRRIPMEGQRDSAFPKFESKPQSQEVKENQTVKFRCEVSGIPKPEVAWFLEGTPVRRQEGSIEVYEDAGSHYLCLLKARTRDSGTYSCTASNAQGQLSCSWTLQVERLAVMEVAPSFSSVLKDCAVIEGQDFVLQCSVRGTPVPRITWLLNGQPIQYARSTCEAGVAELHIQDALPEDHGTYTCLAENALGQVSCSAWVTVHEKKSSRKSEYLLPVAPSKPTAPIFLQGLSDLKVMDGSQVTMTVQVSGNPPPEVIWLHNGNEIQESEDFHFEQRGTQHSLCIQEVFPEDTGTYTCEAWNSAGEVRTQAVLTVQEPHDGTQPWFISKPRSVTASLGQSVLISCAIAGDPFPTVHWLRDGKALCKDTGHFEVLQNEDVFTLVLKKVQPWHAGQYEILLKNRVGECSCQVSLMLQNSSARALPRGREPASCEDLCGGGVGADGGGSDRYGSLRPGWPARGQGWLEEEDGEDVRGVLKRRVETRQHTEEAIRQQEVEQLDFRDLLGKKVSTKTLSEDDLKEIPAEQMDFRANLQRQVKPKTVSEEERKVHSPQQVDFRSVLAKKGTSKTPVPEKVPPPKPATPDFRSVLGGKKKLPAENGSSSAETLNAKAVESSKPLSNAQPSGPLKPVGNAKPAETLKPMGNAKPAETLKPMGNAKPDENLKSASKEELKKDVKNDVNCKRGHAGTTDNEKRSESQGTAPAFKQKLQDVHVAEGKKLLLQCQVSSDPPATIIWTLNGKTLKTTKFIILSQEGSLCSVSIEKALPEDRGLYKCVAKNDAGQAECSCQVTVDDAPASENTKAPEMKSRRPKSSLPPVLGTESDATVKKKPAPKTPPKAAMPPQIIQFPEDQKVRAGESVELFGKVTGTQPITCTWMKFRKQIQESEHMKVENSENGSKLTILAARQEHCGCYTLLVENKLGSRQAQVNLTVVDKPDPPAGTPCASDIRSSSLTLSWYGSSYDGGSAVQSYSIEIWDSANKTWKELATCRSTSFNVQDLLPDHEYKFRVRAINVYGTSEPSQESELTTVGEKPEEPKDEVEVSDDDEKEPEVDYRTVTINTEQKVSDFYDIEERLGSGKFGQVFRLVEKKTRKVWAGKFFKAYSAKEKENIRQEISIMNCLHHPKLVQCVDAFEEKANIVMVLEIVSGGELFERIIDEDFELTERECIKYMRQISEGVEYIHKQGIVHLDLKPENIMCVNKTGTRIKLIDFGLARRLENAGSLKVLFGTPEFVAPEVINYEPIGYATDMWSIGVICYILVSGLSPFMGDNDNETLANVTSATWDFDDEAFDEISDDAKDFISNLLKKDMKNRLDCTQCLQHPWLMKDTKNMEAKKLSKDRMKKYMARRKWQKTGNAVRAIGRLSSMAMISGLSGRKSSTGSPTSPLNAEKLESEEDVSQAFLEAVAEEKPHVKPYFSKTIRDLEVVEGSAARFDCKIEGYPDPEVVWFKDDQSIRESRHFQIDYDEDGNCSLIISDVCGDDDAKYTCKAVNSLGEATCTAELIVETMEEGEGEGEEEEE
"kinase still bound, per cent of control [2]","kinase still bound, per cent of control [3]","kinase still bound, per cent of control [4]","kinase still bound, per cent of control [5]","kinase still bound, per cent of control [6]","kinase still bound, per cent of control [7]","kinase still bound, per cent of control [8]","kinase still bound, per cent of control [9]","kinase still bound, per cent of control [10]","kinase still bound, per cent of control [11]","kinase still bound, per cent of control [12]","kinase still bound, per cent of control [13]","kinase still bound, per cent of control [14]","kinase still bound, per cent of control [15]","kinase still bound, per cent of control [16]","kinase still bound, per cent of control [19]","kinase still bound, per cent of control [20]","kinase still bound, per cent of control [22]","kinase still bound, per cent of control [23]","kinase still bound, per cent of control [24]",Compound,other results
6.5%,100%,100%,100%,34%,100%,30%,100%,5%,100%,100%,100%,100%,100%,24%,100%,100%,100%,29%,100%,COc1cc(N2CCC(C(N)=O)CC2)ccc1Nc1nc(N)c(Cl)c(Nc2ccccc2S(=O)(=O)C(C)C)n1,"kinase still bound, per cent of control [1]: 100%; kinase still bound, per cent of control [17]: 100%; kinase still bound, per cent of control [18]: 100%; kinase still bound, per cent of control [21]: 100%; kinase still bound, per cent of control [25]: 100%; kinase still bound, per cent of control [26]: 5.5%; kinase still bound, per cent of control [27]: 100%; kinase still bound, per cent of control [28]: 100%; kinase still bound, per cent of control [29]: 21%; kinase still bound, per cent of control [30]: 100%; kinase still bound, per cent of control [31]: 100%; kinase still bound, per cent of control [32]: 100%; kinase still bound, per cent of control [33]: 100%; kinase still bound, per cent of control [34]: 100%; kinase still bound, per cent of control [35]: 100%; kinase still bound, per cent of control [36]: 4.6%; kinase still bound, per cent of control [37]: 0.55%; kinase still bound, per cent of control [38]: 100%"
100%,100%,100%,100%,100%,100%,28%,100%,100%,100%,0%,100%,100%,100%,100%,100%,100%,100%,100%,100%,CCOc1cc(N2CCC(O)CC2)ccc1Nc1ncc2c(n1)N(C)c1ccccc1C(=O)N2C,"kinase still bound, per cent of control [1]: 100%; kinase still bound, per cent of control [17]: 100%; kinase still bound, per cent of control [18]: 100%; kinase still bound, per cent of control [21]: 100%; kinase still bound, per cent of control [25]: 100%; kinase still bound, per cent of control [26]: 100%; kinase still bound, per cent of control [27]: 100%; kinase still bound, per cent of control [28]: 100%; kinase still bound, per cent of control [29]: 100%; kinase still bound, per cent of control [30]: 100%; kinase still bound, per cent of control [31]: 100%; kinase still bound, per cent of control [32]: 100%; kinase still bound, per cent of control [33]: 100%; kinase still bound, per cent of control [34]: 100%; kinase still bound, per cent of control [35]: 100%; kinase still bound, per cent of control [36]: 100%; kinase still bound, per cent of control [37]: 100%; kinase still bound, per cent of control [38]: 100%"
100%,100%,100%,100%,100%,100%,100%,100%,100%,100%,100%,100%,6%,0.3%,1.4%,100%,100%,0.2%,100%,100%,Cc1cn(-c2cc(C(=O)Nc3ccc(C)c(NC(=O)c4ccno4)c3)cc(C(F)(F)F)c2)cn1,"kinase still bound, per cent of control [1]: 100%; kinase still bound, per cent of control [17]: 100%; kinase still bound, per cent of control [18]: 100%; kinase still bound, per cent of control [21]: 100%; kinase still bound, per cent of control [25]: 100%; kinase still bound, per cent of control [26]: 100%; kinase still bound, per cent of control [27]: 100%; kinase still bound, per cent of control [28]: 100%; kinase still bound, per cent of control [29]: 100%; kinase still bound, per cent of control [30]: 100%; kinase still bound, per cent of control [31]: 100%; kinase still bound, per cent of control [32]: 100%; kinase still bound, per cent of control [33]: 100%; kinase still bound, per cent of control [34]: 100%; kinase still bound, per cent of control [35]: 100%; kinase still bound, per cent of control [36]: 100%; kinase still bound, per cent of control [37]: 100%; kinase still bound, per cent of control [38]: 100%"
100%,100%,1.6%,100%,100%,2%,100%,100%,100%,100%,15%,100%,23%,0%,0.2%,100%,100%,0.35%,3.8%,100%,COc1ccc(N(C(=O)Oc2cc(C(=O)Nc3cccc(C(F)(F)F)c3)ccc2C)c2ccnc(Nc3ccc(N4CCN(C)CC4)cc3)n2)c(OC)c1,"kinase still bound, per cent of control [25]: 100%; kinase still bound, per cent of control [26]: 100%; kinase still bound, per cent of control [27]: 100%; kinase still bound, per cent of control [29]: 100%; kinase still bound, per cent of control [30]: 20%; kinase still bound, per cent of control [31]: 8.8%; kinase still bound, per cent of control [32]: 100%; kinase still bound, per cent of control [34]: 7%; kinase still bound, per cent of control [35]: 100%; kinase still bound, per cent of control [36]: 100%; kinase still bound, per cent of control [37]: 3.4%; kinase still bound, per cent of control [38]: 100%"
